The results in this text go back to paper PMC9124820, “In vitro evaluation of fenfluramine and norfenfluramine as victims of drug interactions” (Pharmacology Research & Perspectives, 2022).

SMILES strings stand for the structures.

In the data set the target is T1, rCYP1A2 (Homo sapiens, UniProt P05177).
T1 construct: purchased Cypex, Ltd; host or cells: Escherichia coli
T1 sequence (P05177 1-516): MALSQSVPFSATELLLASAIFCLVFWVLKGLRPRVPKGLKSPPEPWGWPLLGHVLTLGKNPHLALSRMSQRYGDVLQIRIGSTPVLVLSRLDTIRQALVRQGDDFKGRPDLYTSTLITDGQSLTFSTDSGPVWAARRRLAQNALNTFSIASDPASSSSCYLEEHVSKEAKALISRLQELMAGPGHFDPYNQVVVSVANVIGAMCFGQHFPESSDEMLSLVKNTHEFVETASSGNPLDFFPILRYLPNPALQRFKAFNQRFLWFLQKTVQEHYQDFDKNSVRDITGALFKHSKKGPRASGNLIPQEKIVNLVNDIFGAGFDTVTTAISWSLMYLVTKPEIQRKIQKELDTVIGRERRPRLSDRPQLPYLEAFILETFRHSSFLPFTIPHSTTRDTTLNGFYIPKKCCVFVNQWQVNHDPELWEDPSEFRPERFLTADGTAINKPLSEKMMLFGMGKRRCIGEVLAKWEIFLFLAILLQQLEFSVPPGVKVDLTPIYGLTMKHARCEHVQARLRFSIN
In words: Reaction phenotyping with rCYP1A2. The data set is classed as in vitro ADME. As to the method:
For FFA and nFFA reaction phenotyping experiments, LC‐MS/MS experiments were performed using an API 4000 QTRAP or QTRAP 5500 mass spectrometer (SCIEX) with positive electrospray ionization. Chromatography was performed using an Atlantis dC18 analytical column (100 × 2.1 mm, 5 µm; Waters Corporation). Mobile phases were 0.2% v/v formic acid in water and 0.2% v/v formic acid in methanol. FFA and nFFA were eluted at a flow rate of 0.5 mL/min with a linear gradient of 40%−95% methanol from 0.20−2.1 min. The mass transitions monitored were 232.0>109.0 for FFA, 204.0>159.0 for nFFA, 348.0>330.0 for 1’‐hydroxymidazolam‐d4 internal standard (FFA reaction phenotyping), and 262.0>244.0 for hydroxybupropion‐d6 internal standard (nFFA reaction phenotyping). Analyst Instrument Control and Data Processing software (v. 1.6.1) was used for collecting and integrating data (SCIEX). Calibration curves ranging from 1.25 µM−0.01 µM were used to quantify nFFA. Relative quantitation was used to approximate the amount of FFA test material used.
Methods used to evaluate the role of CYP450s in the metabolism of FFA have been described.[22], [23], [24] […] Supernatant fractions were analyzed by LC‐MS/MS.

In the case of `CCNC(C)Cc1cccc(C(F)(F)F)c1` (racemic) [FFA, (RS)‐ethyl (α‐methyl‐3‐trifluoromethylphenethyl)amine], the “Disappearance of FFA” value (1 μM FFA, 25 pmol rCYP1A2, 60 min) stood at 23%. For the same compound, the FFA loss (10 μM FFA, rCYP1A2, 60 min) came out at 22%.
